Laboratory results from patent publication US11767341B2, “Lincosamide antibiotics and uses thereof” (President and Fellows of Harvard College, priority 2017, dated 2023).
Converted amounts (≈) assume the structure as drawn.

tested on: S. pneumoniae MMX 3028 cErmB; test: MIC determination; assay type: cell-based; conditions: Streptococcus pneumoniae, MMX3028CERMB

Compound	MIC [µg/mL]
CSC1O[C@H]([C@H](NC(=O)[C@H]2NC[C@@H]3C=C(c4ccc(F)cc4)CCO[C@@H]23)[C@H](C)Cl)C(O)[C@@H](O)[C@H]1O (stereo partly shown) [FSA-507052]	> 32
CSC1O[C@H]([C@H](NC(=O)[C@H]2NC[C@H]3CC=CCO[C@H]32)[C@H](C)Cl)C(O)[C@@H](O)[C@H]1O (stereo partly shown) [FSA-507051]	> 32

tested on: P. aeruginosa MMX Mex parent strain; test: MIC determination; assay type: cell-based; conditions: Pseudomonas aeruginosa

Compound	MIC [µg/mL]
CSC1O[C@H]([C@H](NC(=O)[C@H]2NC[C@@H]3C=C(c4ccc(F)cc4)CCO[C@@H]23)[C@H](C)Cl)C(O)[C@@H](O)[C@H]1O (stereo partly shown) [FSA-507052]	> 32
CSC1O[C@H]([C@H](NC(=O)[C@H]2NC[C@H]3CC=CCO[C@H]32)[C@H](C)Cl)C(O)[C@@H](O)[C@H]1O (stereo partly shown) [FSA-507051]	> 32

tested on: S. pneumoniae ATCC 49619; test: MIC determination; assay type: cell-based; conditions: Streptococcus pneumoniae, ATCC49619; S. pneumoniae ATCC 49619; read-out: MIC

Compound	MIC [µg/mL]
CSC1O[C@H]([C@H](NC(=O)[C@H]2NC[C@@H]3C=C(c4ccc(F)cc4)CCO[C@@H]23)[C@H](C)Cl)C(O)[C@@H](O)[C@H]1O (stereo partly shown) [FSA-507052]	0.25 (≈ 0.471 µM)
CSC1O[C@H]([C@H](NC(=O)[C@H]2NC[C@H]3CC=CCO[C@H]32)[C@H](C)Cl)C(O)[C@@H](O)[C@H]1O (stereo partly shown) [FSA-507051]	1 (≈ 2.29 µM)

tested on: P. aeruginosa ATCC 27853; test: MIC determination; assay type: cell-based; conditions: Pseudomonas aeruginosa, ATCC27853

Compound	MIC [µg/mL]
CSC1O[C@H]([C@H](NC(=O)[C@H]2NC[C@@H]3C=C(c4ccc(F)cc4)CCO[C@@H]23)[C@H](C)Cl)C(O)[C@@H](O)[C@H]1O (stereo partly shown) [FSA-507052]	> 32
CSC1O[C@H]([C@H](NC(=O)[C@H]2NC[C@H]3CC=CCO[C@H]32)[C@H](C)Cl)C(O)[C@@H](O)[C@H]1O (stereo partly shown) [FSA-507051]	> 32

tested on: S. pyogenes MMX 946 Macrolide-Resistant; test: MIC determination; assay type: cell-based; conditions: Streptococcus pyogenes

Compound	MIC [µg/mL]
CSC1O[C@H]([C@H](NC(=O)[C@H]2NC[C@@H]3C=C(c4ccc(F)cc4)CCO[C@@H]23)[C@H](C)Cl)C(O)[C@@H](O)[C@H]1O (stereo partly shown) [FSA-507052]	> 32
CSC1O[C@H]([C@H](NC(=O)[C@H]2NC[C@H]3CC=CCO[C@H]32)[C@H](C)Cl)C(O)[C@@H](O)[C@H]1O (stereo partly shown) [FSA-507051]	32 (≈ 73.2 µM)

tested on: E. coli MMX 0121 ΔTolC; test: MIC determination; assay type: cell-based; conditions: Escherichia coli

Compound	MIC [µg/mL]
CSC1O[C@H]([C@H](NC(=O)[C@H]2NC[C@@H]3C=C(c4ccc(F)cc4)CCO[C@@H]23)[C@H](C)Cl)C(O)[C@@H](O)[C@H]1O (stereo partly shown) [FSA-507052]	> 32
CSC1O[C@H]([C@H](NC(=O)[C@H]2NC[C@H]3CC=CCO[C@H]32)[C@H](C)Cl)C(O)[C@@H](O)[C@H]1O (stereo partly shown) [FSA-507051]	> 32

tested on: E. coli MMX TolC parent strain; test: MIC determination; assay type: cell-based; conditions: Escherichia coli

Compound	MIC [µg/mL]
CSC1O[C@H]([C@H](NC(=O)[C@H]2NC[C@@H]3C=C(c4ccc(F)cc4)CCO[C@@H]23)[C@H](C)Cl)C(O)[C@@H](O)[C@H]1O (stereo partly shown) [FSA-507052]	> 32
CSC1O[C@H]([C@H](NC(=O)[C@H]2NC[C@H]3CC=CCO[C@H]32)[C@H](C)Cl)C(O)[C@@H](O)[C@H]1O (stereo partly shown) [FSA-507051]	> 32

tested on: S. aureus BAA 977 iErmA; test: MIC determination; assay type: cell-based; conditions: Staphylococcus aureus, BAA977

Compound	MIC [µg/mL]
CSC1O[C@H]([C@H](NC(=O)[C@H]2NC[C@@H]3C=C(c4ccc(F)cc4)CCO[C@@H]23)[C@H](C)Cl)C(O)[C@@H](O)[C@H]1O (stereo partly shown) [FSA-507052]	2 (≈ 3.77 µM)
CSC1O[C@H]([C@H](NC(=O)[C@H]2NC[C@H]3CC=CCO[C@H]32)[C@H](C)Cl)C(O)[C@@H](O)[C@H]1O (stereo partly shown) [FSA-507051]	16 (≈ 36.6 µM)

tested on: S. aureus ATCC 29213; test: MIC determination; assay type: cell-based; conditions: Staphylococcus aureus, ATCC29213

Compound	MIC [µg/mL]
CSC1O[C@H]([C@H](NC(=O)[C@H]2NC[C@H]3CC=CCO[C@H]32)[C@H](C)Cl)C(O)[C@@H](O)[C@H]1O (stereo partly shown) [FSA-507051]	16 (≈ 36.6 µM)

same assay, conditions: Staphylococcus aureus, ATCC29213, S. aureus ATCC 29213; read-out: MIC

Compound	MIC [µg/mL]
CSC1O[C@H]([C@H](NC(=O)[C@H]2NC[C@@H]3C=C(c4ccc(F)cc4)CCO[C@@H]23)[C@H](C)Cl)C(O)[C@@H](O)[C@H]1O (stereo partly shown) [FSA-507052]	2 (≈ 3.77 µM)

tested on: S. aureus MMX 3035 cErmA; test: MIC determination; assay type: cell-based; conditions: Staphylococcus aureus, MMX3035CERMA

Compound	MIC [µg/mL]
CSC1O[C@H]([C@H](NC(=O)[C@H]2NC[C@@H]3C=C(c4ccc(F)cc4)CCO[C@@H]23)[C@H](C)Cl)C(O)[C@@H](O)[C@H]1O (stereo partly shown) [FSA-507052]	> 32
CSC1O[C@H]([C@H](NC(=O)[C@H]2NC[C@H]3CC=CCO[C@H]32)[C@H](C)Cl)C(O)[C@@H](O)[C@H]1O (stereo partly shown) [FSA-507051]	> 32

tested on: H. influenzae ATCC 49247; test: MIC determination; assay type: cell-based; conditions: Haemophilus influenzae, ATCC49247

Compound	MIC [µg/mL]
CSC1O[C@H]([C@H](NC(=O)[C@H]2NC[C@@H]3C=C(c4ccc(F)cc4)CCO[C@@H]23)[C@H](C)Cl)C(O)[C@@H](O)[C@H]1O (stereo partly shown) [FSA-507052]	> 32
CSC1O[C@H]([C@H](NC(=O)[C@H]2NC[C@H]3CC=CCO[C@H]32)[C@H](C)Cl)C(O)[C@@H](O)[C@H]1O (stereo partly shown) [FSA-507051]	16 (≈ 36.6 µM)

tested on: S. pyogenes ATCC 19615; test: MIC determination; assay type: cell-based; conditions: Streptococcus pyogenes, ATCC19615

Compound	MIC [µg/mL]
CSC1O[C@H]([C@H](NC(=O)[C@H]2NC[C@H]3CC=CCO[C@H]32)[C@H](C)Cl)C(O)[C@@H](O)[C@H]1O (stereo partly shown) [FSA-507051]	0.5 (≈ 1.14 µM)

same assay, conditions: Streptococcus pyogenes, ATCC19615; S. pyogenes ATCC 19615; read-out: MIC

Compound	MIC [µg/mL]
CSC1O[C@H]([C@H](NC(=O)[C@H]2NC[C@@H]3C=C(c4ccc(F)cc4)CCO[C@@H]23)[C@H](C)Cl)C(O)[C@@H](O)[C@H]1O (stereo partly shown) [FSA-507052]	0.25 (≈ 0.471 µM)

tested on: E. faecalis ATCC 29212; test: MIC determination; assay type: cell-based; conditions: Enterococcus faecalis, ATCC29212

Compound	MIC [µg/mL]
CSC1O[C@H]([C@H](NC(=O)[C@H]2NC[C@H]3CC=CCO[C@H]32)[C@H](C)Cl)C(O)[C@@H](O)[C@H]1O (stereo partly shown) [FSA-507051]	> 32

same assay, conditions: Enterococcus faecalis, ATCC29212, read-out: MIC

Compound	MIC [µg/mL]
CSC1O[C@H]([C@H](NC(=O)[C@H]2NC[C@@H]3C=C(c4ccc(F)cc4)CCO[C@@H]23)[C@H](C)Cl)C(O)[C@@H](O)[C@H]1O (stereo partly shown) [FSA-507052]	1 (≈ 1.88 µM)

tested on: E. faecalis MMX 847 Macrolide-Resistant; test: MIC determination; assay type: cell-based; conditions: Enterococcus faecalis

Compound	MIC [µg/mL]
CSC1O[C@H]([C@H](NC(=O)[C@H]2NC[C@@H]3C=C(c4ccc(F)cc4)CCO[C@@H]23)[C@H](C)Cl)C(O)[C@@H](O)[C@H]1O (stereo partly shown) [FSA-507052]	> 32
CSC1O[C@H]([C@H](NC(=O)[C@H]2NC[C@H]3CC=CCO[C@H]32)[C@H](C)Cl)C(O)[C@@H](O)[C@H]1O (stereo partly shown) [FSA-507051]	> 32

tested on: E. coli ATCC 25922; test: MIC determination; assay type: cell-based; conditions: Escherichia coli, ATCC25922

Compound	MIC [µg/mL]
CSC1O[C@H]([C@H](NC(=O)[C@H]2NC[C@@H]3C=C(c4ccc(F)cc4)CCO[C@@H]23)[C@H](C)Cl)C(O)[C@@H](O)[C@H]1O (stereo partly shown) [FSA-507052]	> 32
CSC1O[C@H]([C@H](NC(=O)[C@H]2NC[C@H]3CC=CCO[C@H]32)[C@H](C)Cl)C(O)[C@@H](O)[C@H]1O (stereo partly shown) [FSA-507051]	32 (≈ 73.2 µM)

tested on: B. fragilis ATCC 25285; test: MIC determination; assay type: cell-based; conditions: Bacteroides fragilis, ATCC25285

Compound	MIC [µg/mL]
CSC1O[C@H]([C@H](NC(=O)[C@H]2NC[C@@H]3C=C(c4ccc(F)cc4)CCO[C@@H]23)[C@H](C)Cl)C(O)[C@@H](O)[C@H]1O (stereo partly shown) [FSA-507052]	> 32
CSC1O[C@H]([C@H](NC(=O)[C@H]2NC[C@H]3CC=CCO[C@H]32)[C@H](C)Cl)C(O)[C@@H](O)[C@H]1O (stereo partly shown) [FSA-507051]	32 (≈ 73.2 µM)

tested on: S. aureus Micromyx USA 300; test: MIC determination; assay type: cell-based; conditions: Staphylococcus aureus, USA300

Compound	MIC [µg/mL]
CSC1O[C@H]([C@H](NC(=O)[C@H]2NC[C@H]3CC=CCO[C@H]32)[C@H](C)Cl)C(O)[C@@H](O)[C@H]1O (stereo partly shown) [FSA-507051]	16 (≈ 36.6 µM)

same assay, conditions: Staphylococcus aureus, USA300; S. aureus Micromyx USA 300; read-out: MIC

Compound	MIC [µg/mL]
CSC1O[C@H]([C@H](NC(=O)[C@H]2NC[C@@H]3C=C(c4ccc(F)cc4)CCO[C@@H]23)[C@H](C)Cl)C(O)[C@@H](O)[C@H]1O (stereo partly shown) [FSA-507052]	0.5 (≈ 0.942 µM)

tested on: S. pneumoniae MMX 3031 cMefA; test: MIC determination; assay type: cell-based; conditions: Streptococcus pneumoniae, MMX3031CMEFA

Compound	MIC [µg/mL]
CSC1O[C@H]([C@H](NC(=O)[C@H]2NC[C@@H]3C=C(c4ccc(F)cc4)CCO[C@@H]23)[C@H](C)Cl)C(O)[C@@H](O)[C@H]1O (stereo partly shown) [FSA-507052]	0.12 (≈ 0.226 µM)
CSC1O[C@H]([C@H](NC(=O)[C@H]2NC[C@H]3CC=CCO[C@H]32)[C@H](C)Cl)C(O)[C@@H](O)[C@H]1O (stereo partly shown) [FSA-507051]	1 (≈ 2.29 µM)

tested on: P. aeruginosa MMX 3476 Δmex; test: MIC determination; assay type: cell-based; conditions: Pseudomonas aeruginosa

Compound	MIC [µg/mL]
CSC1O[C@H]([C@H](NC(=O)[C@H]2NC[C@@H]3C=C(c4ccc(F)cc4)CCO[C@@H]23)[C@H](C)Cl)C(O)[C@@H](O)[C@H]1O (stereo partly shown) [FSA-507052]	> 32
CSC1O[C@H]([C@H](NC(=O)[C@H]2NC[C@H]3CC=CCO[C@H]32)[C@H](C)Cl)C(O)[C@@H](O)[C@H]1O (stereo partly shown) [FSA-507051]	> 32

tested on: C. difficile BAA 1805; test: MIC determination; assay type: cell-based; conditions: Clostridioides difficile, BAA1805

Compound	MIC [µg/mL]
CSC1O[C@H]([C@H](NC(=O)[C@H]2NC[C@H]3CC=CCO[C@H]32)[C@H](C)Cl)C(O)[C@@H](O)[C@H]1O (stereo partly shown) [FSA-507051]	> 32

same assay, conditions: Clostridioides difficile, BAA1805; C. difficile BAA 1805; read-out: MIC

Compound	MIC [µg/mL]
CSC1O[C@H]([C@H](NC(=O)[C@H]2NC[C@@H]3C=C(c4ccc(F)cc4)CCO[C@@H]23)[C@H](C)Cl)C(O)[C@@H](O)[C@H]1O (stereo partly shown) [FSA-507052]	16 (≈ 30.1 µM)
